Results: patent US6309842A, “Use of modified tethers in screening compound libraries” (Glaxo Wellcome Inc., priority 1997, dated 2001)

How the values were obtained:
[1] = target: RARa (Retinoic Acid Receptor alpha) (Homo sapiens, UniProt P10276); assay: Gal4 DNA binding domain/RARa fusion with 5x UAS-tk-SEAP reporter in CHOK1 cells
Description: The Gal4 DNA response element (5× UAS) was cloned upstream of the SEAP reporter gene, driven by the tk promoter, into the pGL3 vector (Promega). The pSG5 vector (Stratagene) was used to clone a Gal4 DNA Binding Domain/RARa (Retinoic Acid Receptor alpha)(carboxy end) fusion. These two plasmids were simultaneously transiently lipofected into CHOK1 cells using with Lipofectamine (Gibco BRL). The lipofected cells were seeded into individual wells on 2, 96-well culture plates (Falcon). The cells were grown for 16 hr in 100 μl/well Optimem Media (Gibco) with 10% dilapidated serum (Sigma) that was heat treated at 65° C. for 45 minutes before adding to the media. Serum was heated to inactivate endogenous phosphatases. After 16 hr growth at 37° C., there were 10^4 cells/well. Cells in one plate were stimulated with 1 μM retinoic acid; the cells in the other plate were not stimulated. Media was the same. The plates were incubated in the 37° C. cell culture incubator for another 24 hr. The supernatants were removed from the individual wells on the plates. All supernatants from stimulated cells were pooled; all supernatants from nonstimulated cells were pooled. Both were stored at 4° C. overnight. The cells were discarded.
The next day, 100 μl of each supernatant was tested for SEAP activity using the Tropix Chemiluminescent Assay Kit, as before.

IL-1R = target: T1, IL-1R (Homo sapiens, UniProt P14778); assay: IL-1R binding assay
T1 sequence (P14778 18-569): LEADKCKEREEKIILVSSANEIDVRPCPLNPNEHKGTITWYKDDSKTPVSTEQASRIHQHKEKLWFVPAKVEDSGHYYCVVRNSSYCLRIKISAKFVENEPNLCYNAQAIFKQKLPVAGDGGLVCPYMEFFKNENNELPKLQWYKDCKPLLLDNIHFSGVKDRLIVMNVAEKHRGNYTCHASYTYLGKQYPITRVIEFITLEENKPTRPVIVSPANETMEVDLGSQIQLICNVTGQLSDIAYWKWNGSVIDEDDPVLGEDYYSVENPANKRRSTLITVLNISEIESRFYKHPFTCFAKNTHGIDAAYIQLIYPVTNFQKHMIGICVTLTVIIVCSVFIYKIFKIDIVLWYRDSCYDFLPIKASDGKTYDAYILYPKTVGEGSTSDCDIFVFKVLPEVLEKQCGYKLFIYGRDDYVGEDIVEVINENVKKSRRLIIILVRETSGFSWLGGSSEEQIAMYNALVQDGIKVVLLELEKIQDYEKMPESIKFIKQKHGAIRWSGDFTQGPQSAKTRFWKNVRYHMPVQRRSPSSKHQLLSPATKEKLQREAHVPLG

IL-1RFc = assay: Competition assay, IL-1RFc held on reservoir beads, released AP activity; assay type: binding; conditions: beads coated with streptavidin or biotin-MBP-AF12413
Excerpt: This example uses two classes of beads referred to as reservoir beads and library beads. The reservoir beads have receptor immobilized via a known ligand. The library beads have compounds to be screened, identifier tags and tethers as before. A compound released from a library bead competes a labelled receptor from a reservoir bead, and the labelled receptor, directly or indirectly, modifies a tether on proximate library beads. Both sets of beads can be added to nanowells for performing the assay.
500 μl beads (Polysciences, Inc., 2.5% Solids-latex, 2 μm) were washed twice with PBS, resuspended in 1 ml of PBS and split into 5 tubes (a, b, c, d, e). 300 μl 1 mg/ml coating protein was added per tube and incubated at 37° C. for 3 hr on shaker. The beads were washed with PBT. Coating proteins were added in the five tubes as follows: a. BSA-Biotin (Sigma), b. BSA (LC)-Biotin (Sigma), c. Hemocyanin-Biotin (Sigma), d. Streptavidin (Gibco BRL), e. Biotin-MBP-AF12413 [[…](biotin)[…] (SEQ ID NO:30)-maltose binding protein-[…] (SEQ ID NO:31)].
The beads were blocked with 1 ml PBT and incubated at room temperature overnight on shaker and washed with PBT. 300 μl of 1 mg/ml streptavidin and 1.2 ml PBT were added to a, b, c, tubes, which were incubated at; 37° C. for 1 hour on shaker. The tubes were washed twice in PBS. […]

RARa (Retinoic Acid Receptor alpha), sequence (P10276 whole entry, the tested form may be a part): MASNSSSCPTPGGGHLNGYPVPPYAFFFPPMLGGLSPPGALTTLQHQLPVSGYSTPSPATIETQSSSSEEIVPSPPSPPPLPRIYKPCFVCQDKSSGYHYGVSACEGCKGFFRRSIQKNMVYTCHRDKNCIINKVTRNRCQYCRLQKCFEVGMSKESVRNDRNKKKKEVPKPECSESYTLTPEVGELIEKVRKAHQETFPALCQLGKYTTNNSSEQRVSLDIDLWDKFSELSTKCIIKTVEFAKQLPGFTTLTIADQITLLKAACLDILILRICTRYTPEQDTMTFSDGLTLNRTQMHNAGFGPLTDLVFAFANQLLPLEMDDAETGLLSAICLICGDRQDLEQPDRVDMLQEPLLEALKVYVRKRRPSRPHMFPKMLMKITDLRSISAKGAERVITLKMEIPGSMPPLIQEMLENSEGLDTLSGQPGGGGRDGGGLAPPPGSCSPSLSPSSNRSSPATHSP

| IC50 (IL-1R) [nM] | Compound | SEAP produced in supernatant ([1]; 1 μM retinoic acid, 24 hr stimulation) | fold induction at 1 µM ([1]; CHO-K1, 24 h, read-out: Increase in SEAP production upon stimulation) | Signal of released AP activity (IL-1RFc) |
| --- | --- | --- | --- | --- |
|  | CC1=C(/C=C/C(C)=C/C=C/C(C)=C/C(=O)O)C(C)(C)CCC1 [retinoic acid] | about 0.52 units of SEAP/ml | 126 |  |
| ~2 | NH2-YEWTPGYYQJY-NH2 [AF12304] |  |  | only background signals |
